Test results taken from patent publication US20090253709A1 (NATIONAL DEFENSE MEDICAL CENTER, priority 2008, published 2009).
Where two headings read alike, the source gives them in different places.

Key:
MTT assay in BJ1 cells = type: cell-based; conditions: human, hTERT-BJ1-PTERT(3.4)-SEAP cells, BJ1, read-out: MTT (Inhibition μM ± SD); for viability at 48 h, 1 µM: compound concentration 1 μM; for viability at 48 h, 10 µM: compound concentration 10 μM; for viability at 48 h, 100 µM: compound concentration 100 μM
Method: A total of 2×10^3 […] cells were seeded in the 96-well cell culture plate, and incubated with DMEM (GIBCO®)/glucose mixture and Medium 199 (GIBCO®)/10% FBS/1 mM sodium pyruvate (GIBCO®)/4 mM L-glutamine (GIBCO®) mixture at a ratio of 4:1 at 37° C. for 24 hours. […] After 48 hours of drug treatment, the cultured medium were collected for performing the analysis of SEAP activity. The cells were washed with 1×PBS once immediately, and the MTT assay was performed to compare the compounds with the relative toxicity or the influence to the proliferation and activity. Mitochondria is the place for cellular respiration, and there are many reductive reactions catalyzed by dehydrogenases. MTT is a water-soluble yellow compound, and the […] will be formed after reduction. This crystal can be dissolved in the organic solvent, and has high absorbance at the wavelength of 570 nm. The higher cellular activity or more cell numbers, the more generated crystal violets. Therefore, the cellular activity and cell number can be obtained by the MTT assay. MTT solution was prepared by dissolving MTT powder in PBS solution to achieve 5 mg/ml, filtrated and stored at 4° C. Lysis buffer contained 20% (w/v) of SDS in 50% of N,N-dimethylformamide (DMF, Riedel-deHaën). After the cells were incubated in the 96-well culture plate, the original medium was discarded, 100 μl of the fresh serum-free medium per well and 25 μl of MTT solution per well were added in respectively, and the cells were further incubated in the CO2 incubator at 37° C. for 4 hours. Then, 100 μl of lysis buffer per well was added in and incubated overnight in the CO2 incubator at 37° C. The absorbance at 570 nm was determined by the ELISA reader.

hTERT expression = test: SEAP assay, H1299/PhTERT-driven SEAP system; type: cell-based, human; conditions: Homo sapiens
Text: The condition of the cells for selecting the telomerase inhibitor must be the cancer cells with telomerase activity. H1299 is a non-small cell lung cancer cell line with telomerase activity. The hTERT communication gene linked behind PhTERT which is located at the fifth chromosome of H1299 cell can be expressed; however, this expression is hard to detect. Therefore, the plasmid having the SEAP communication gene linked behind PhTERT was transfected into H1299 cells. Under the identical condition, after PhTERT was activated, the SEAP communication gene linked behind the plasmid was also activated. This gene could be detected by this analytic method while expressing.
If additionally added reagent can inhibit PhTERT, the linked SEAP communication gene will not be expressed, and the hTERT communication gene linked behind PhTERT at the fifth chromosome will not be expressed. […]
The cellular medium after the cellular incubation was transferred into the eppondorf tube, and the activity of endogeneous alkaline phosphatase was inactivated at 65° C. for 10 minutes. After centrification, the mixture was obtained by mixing 50 μl of the supernatant with the equal volume of the SEAP buffer. The mixture and the substrate (120 mM of p-nitrophenylphosphate) were preheated at 37° C. for 10 minutes respectively, and the mixture and the substrate were mixed at a ratio of 1:10 and reacted at 37° C. The absorbance of visible light at 405 nm was determined at the appropriate time intervals, and the enzymatic activity of SEAP was represented by the speed of the increasing absorbance at 405 nm.
The selection of telomerase inhibitors of the anthraquinone compounds provided in the present invention was performed by the H1299/PhTERT-driven SEAP system. SEAP is the communication gene in this drug selection model. The SEAP inhibition was shown as follows. The quantitative cellular medium obtained after the 24-hour drug-treatment and the identical inactivation was reacted with the quantitative SEAP substrate, and the absorbance at 405 nm was detected for 5 time intervals. Subsequently, the linear slope of absorbance to the measuring time was calculated, and the variance of absorbance at 405 nm per minute was represented and compared with the SEAP-producing result of drug-untreated H1299 cells. In addition, the influence of the cell-treated drug solution to the cellular proliferation and the drug toxicity to the cells were considered, and the cellular growth was evaluated by the MTT assay. The drug-treated cells were analyzed by the SEAP assay and the data analysis of MTT assay at the same time. Both results were compared so as to delete the influence of cell number or the activity to SEAP, and the dose-dependent phenomenon could be anticipated in the range of drug concentration designed by the laboratory.
In the preliminary selection, the highest concentration was 1000 μM, and 10-fold serial dilutions were done. Therefore, the final concentrations for treating cells were 1 μM, 10 μM and 100 μM, and the drug concentrations were repeated for 5 times. Since the chemically-synthetic drugs have colors thereon, the SEAP value of drug-treatment without cells was also determined to be the background value which was deducted while treating with the drugs. The candidate drug for inhibiting telomerase on the hTERT gene expression level was evaluated and anticipated.

[1] = NCI-H1299, H1299, compound concentration 1 μM, read-out: SEAP (Inhibition μM ± SD)
[2] = NCI-H1299, H1299, compound concentration 10 μM, read-out: SEAP (Inhibition μM ± SD)
[3] = NCI-H1299, H1299, compound concentration 100 μM, read-out: SEAP (Inhibition μM ± SD)
[4] = NCI-H1299, read-out: SEAP (Inhibition μM ± SD)

Structure (SMILES)	melting point [°C]	viability at 48 h, 1 µM (MTT assay in BJ1 cells) [%]	viability at 48 h, 10 µM (MTT assay in BJ1 cells) [%]	viability at 48 h, 100 µM (MTT assay in BJ1 cells) [%]	activity at 1 µM (hTERT expression; [1]) [%]	activity at 10 µM (hTERT expression; [2]) [%]	activity at 100 µM (hTERT expression; [3]) [%]	activity at 1 µM (hTERT expression; [4]) [%]	activity at 10 µM (hTERT expression; [4]) [%]	activity at 100 µM (hTERT expression; [4]) [%]
O=C1c2ccc([N+](=O)[O-])cc2C(=O)c2cc([N+](=O)[O-])ccc21 [Compound 1, 2,7-dinitroanthraquinone]	284	91 ± 2	91 ± 2	86 ± 3	87 ± 13	85 ± 21	62 ± 8	–	–	–
O=C(CCl)Nc1ccc2c(c1)C(=O)c1cc(NC(=O)CCl)ccc1C2=O [Compound 3, 2,7-bis(chloroacetamido)anthraquinone]	286	105 ± 2	89 ± 3	88 ± 2	–	–	–	72 ± 3	40 ± 1	36 ± 1
CN(C)CC(=O)Nc1ccc2c(c1)C(=O)c1cc(NC(=O)CN(C)C)ccc1C2=O [Compound 8, 2,7-Bis[2-(dimethylamino)acetamido]anthraquinone]	–	96 ± 3	45 ± 1	39 ± 1	–	–	–	87 ± 12	40 ± 20	21 ± 14
CCNCC(=O)Nc1ccc2c(c1)C(=O)c1cc(NC(=O)CNCC)ccc1C2=O [Compound 10, 2,7-Bis[2-(ethylamino)acetamido]anthraquinone]	145	72 ± 2	56 ± 2	37 ± 1	–	–	–	60 ± 10	35 ± 5	34 ± 3
CC(C)NCC(=O)Nc1ccc2c(c1)C(=O)c1cc(NC(=O)CNC(C)C)ccc1C2=O [Compound 13, 2,7-Bis[2-(isopropylamino)acetamido]anthraquinone]	158	89 ± 1	41 ± 2	39 ± 1	–	–	–	73 ± 31	28 ± 18	21 ± 16
CCN(CC)CCC(=O)Nc1ccc2c(c1)C(=O)c1cc(NC(=O)CCN(CC)CC)ccc1C2=O [Compound 16, 2,7-Bis[3-(diethylamino)propionamido]anthraquinone]	–	103 ± 2	55 ± 3	36 ± 1	76 ± 19	35 ± 17	26 ± 11	–	–	–
O=C(CCN1CCCC1)Nc1ccc2c(c1)C(=O)c1cc(NC(=O)CCN3CCCC3)ccc1C2=O [Compound 18, 2,7-Bis[3-(pyrrolidino)propionamido]anthraquinone]	–	82 ± 4	68	39	73 ± 11	29 ± 15	17 ± 13	–	–	–
CCCNCCC(=O)Nc1ccc2c(c1)C(=O)c1cc(NC(=O)CCNCCC)ccc1C2=O [Compound 21, 2,7-Bis[3-(propylamino)propionamido]anthraquinone]	–	75 ± 1	65 ± 2	38 ± 2	52 ± 13	22 ± 14	13 ± 15	–	–	–

The next lines start with results.

melting point [°C]	Structure (SMILES)	viability at 48 h, 1 µM (MTT assay in BJ1 cells) [%]	viability at 48 h, 10 µM (MTT assay in BJ1 cells) [%]	viability at 48 h, 100 µM (MTT assay in BJ1 cells) [%]	activity at 1 µM (hTERT expression; [1]) [%]	activity at 10 µM (hTERT expression; [2]) [%]	activity at 100 µM (hTERT expression; [3]) [%]	activity at 1 µM (hTERT expression; [4]) [%]	activity at 10 µM (hTERT expression; [4]) [%]	activity at 100 µM (hTERT expression; [4]) [%]
342	Nc1ccc2c(c1)C(=O)c1cc(N)ccc1C2=O [Compound 2, 2,7-Diaminoanthraquinone]	95 ± 2	83 ± 1	80 ± 2	87 ± 10	75 ± 8	63 ± 12	–	–	–
241	CCN(CC)CC(=O)Nc1ccc2c(c1)C(=O)c1cc(NC(=O)CN(CC)CC)ccc1C2=O [Compound 4, 2,7-Bis[2-(diethylamino)acetamido]anthraquinone]	116 ± 4	67 ± 2	50 ± 1	90 ± 3	61 ± 11	37 ± 10	–	–	–
125	CCCCNCC(=O)Nc1ccc2c(c1)C(=O)c1cc(NC(=O)CNCCCC)ccc1C2=O [Compound 5, 2,7-Bis[2-(butylamino)acetamido]anthraquinone]	103 ± 1	41 ± 1	43 ± 1	77 ± 18	26 ± 17	20 ± 13	–	–	–
201	O=C(CN1CCCC1)Nc1ccc2c(c1)C(=O)c1cc(NC(=O)CN3CCCC3)ccc1C2=O [Compound 6, 2,7-Bis[2-(pyrrolidino)acetamido]anthraquinone]	99 ± 2	60 ± 2	39 ± 1	88 ± 10	48 ± 13	30 ± 10	–	–	–
243	O=C(CN1CCCCC1)Nc1ccc2c(c1)C(=O)c1cc(NC(=O)CN3CCCCC3)ccc1C2=O [Compound 7, 2,7-Bis[2-(piperidino)acetamido]anthraquinone]	89 ± 1	78 ± 3	22 ± 2	74 ± 19	69 ± 20	63 ± 15	–	–	–
143	CCCNCC(=O)Nc1ccc2c(c1)C(=O)c1cc(NC(=O)CNCCC)ccc1C2=O [Compound 9, 2,7-Bis[2-(propylamino)acetamido]anthraquinone]	96 ± 3	44	42 ± 1	73 ± 17	44 ± 16	24 ± 10	–	–	–
173	CN1CCN(CC(=O)Nc2ccc3c(c2)C(=O)c2cc(NC(=O)CN4CCN(C)CC4)ccc2C3=O)CC1 [Compound 11, 2,7-Bis[2-(N-methylpiperazino)acetamido]anthraquinone]	86 ± 1	69 ± 1	47 ± 3	76 ± 21	50 ± 11	23 ± 9	–	–	–
173	O=C(CN1CCNCC1)Nc1ccc2c(c1)C(=O)c1cc(NC(=O)CN3CCNCC3)ccc1C2=O [Compound 12, 2,7-Bis[2-(piperazino)acetamido]anthraquinone]	88 ± 2	85 ± 15	76 ± 2	89 ± 17	72 ± 20	60 ± 12	–	–	–
